Here are results for 14 compounds from US5041636A, “Urea derivatives” (Wako Pure Chemical Industries, Ltd., priority 1986, dated 1991).

Holding throughout (type): physicochemical
A short description of data set [1]: Maximum absorption wavelength (λmax) and sensitivity (ε) (Table 1). The conditions noted are these: at color development. The text has this: (§1) Various properties such as the stability of leuco dye solution, the stability after color developed, the maximum absorption wavelength (λmax), the sensitivity (ε) and the solubility in water of typical 14 examples of the urea derivatives of the formula (I) are shown in Table 1.

The nature of data set [2]: Stability after color development (Table 1). The arrangement: key: A: stable; B: slightly unstable. The method, then:
as §1
(§2) In Table 1, "A" means stable and "B" means slightly unstable in the evaluation of the stability of the leuco dye solution and the stability after color development. The solubility in water is evaluated as .circleincircle. highly soluble, soluble, and X hardly soluble.

The nature of data set [3]: Stability of leuco dye solution (Table 1). Set-up: key: A: stable; B: slightly unstable. The method, then:
as §1, §2

The nature of data set [4]: Solubility in water (Table 1). The method, then: as §1, §2

Molecules are shown by their SMILES. Counter-ions that a name gives are not always drawn.

In turn, `CCCCNC(=O)N(c1ccc(N(C)C)cc1)c1ccc(N(C)C)cc1` [(16), reference compound] displayed a λmax in data set [1] of 730 nm. Besides, in data set [2], the “Stability after color developed” value was “B”. For the same compound, in data set [3], the “Stability of leuco dye soln.” value is “A”.

`CCN(CC)c1ccc(N(C(=O)NS(=O)(=O)c2ccc(C)cc2)c2ccc(N(C)C)cc2C)c(C)c1` [Compound No. (7), N-(4-dimethylamino-2-methylphenyl)-N-(4'-diethylamino-2'-methylphenyl)-N'-(4-methylphenylsulfonyl)urea] returned a λmax in data set [1] of 740 nm. In addition, the “Stability after color developed” value in data set [2] is “A”. The “Stability of leuco dye soln.” value in data set [3] is on record as “A”.

For `CCCN(CCC)c1ccc2c(c1)Sc1cc(N(CCC)CCC)ccc1N2C(=O)NCC(=O)O` [(12)], the λmax in data set [1] worked out at 666 nm. Also, the Solubility in water result in data set [4] was “.circleincircle”. In addition, the “Stability after color developed” value in data set [2] is “B”. Besides, in data set [3], the “Stability of leuco dye soln.” value is “A”.

In data set [1], `CN(C)c1ccc2c(c1)Oc1cc(N(C)CC(=O)O)ccc1N2C(=O)NCC(=O)O` [(13)] had a λmax of 666 nm. Moreover, in data set [4], the Solubility in water result is given as “.circleincircle”. Further, the “Stability after color developed” value in data set [2] is listed as “B”. Also, the “Stability of leuco dye soln.” value in data set [3] was “B”.

The compound `CCCN(CCC)c1ccc2c(c1)Oc1cc(N(CCC)CCC)ccc1N2C(=O)NCC(=O)O` [(11)] returned a λmax in data set [1] of 666 nm. The Solubility in water result in data set [4] is recorded as “.circleincircle”. For the same compound, the “Stability after color developed” value in data set [2] is listed as “B”. For the same compound, the “Stability of leuco dye soln.” value in data set [3] is listed as “A”.

Regarding `CNC(=O)N(c1ccc(N(C)C)cc1)c1ccc(N(C)C)cc1` [(15), reference compound], the λmax in data set [1] was 730 nm. In addition, the “Stability after color developed” value in data set [2] was “B”. The “Stability of leuco dye soln.” value in data set [3] was “A”.

On to `CN(C)c1ccc(N(C(=O)NCCC2CCOCC2)c2ccc(N(C)CO)cc2)cc1` [(6)], for which, in data set [1], the λmax was 730 nm. In data set [2], the “Stability after color developed” value is given as “B”. Further, the “Stability of leuco dye soln.” value in data set [3] is “A”.

Take `CN(C)c1ccc(N(C(=O)NCC(=O)O)c2ccc(N(C)C)cc2)cc1` [Compound No. (1), sodium salt of N,N-bis(4-dimethylaminophenyl)-N'-carboxymethylurea]: the λmax in data set [1] was found to be 730 nm. Further, in data set [4], the Solubility in water result was “.circleincircle”. Further, the “Stability after color developed” value in data set [2] is “B”. For the same compound, in data set [3], the “Stability of leuco dye soln.” value is on record as “A”.

In turn, `CN(C)c1ccc2c(c1)Oc1cc(N(C)C)ccc1N2C(=O)NCC(=O)O` [Compound No. (10), sodium salt of 10-(carboxymethylaminocarbonyl)-3,7-bis(dimethylamino)phenoxazine] showed a λmax in data set [1] of 666 nm. The Solubility in water result in data set [4] is “.circleincircle”. The “Stability after color developed” value in data set [2] is on record as “B”. The “Stability of leuco dye soln.” value in data set [3] was “B”.

Take `CN(C)c1ccc2c(c1)Sc1cc(N(C)C)ccc1N2C(=O)NCC(=O)O` [Compound No. (9), sodium salt of 10-(carboxymethylaminocarbonyl)-3,7-bis(dimethylamino)phenothiazine]: the λmax in data set [1] turned out to be 666 nm. In data set [4], the Solubility in water result was “.circleincircle”. In addition, in data set [2], the “Stability after color developed” value was “B”. The “Stability of leuco dye soln.” value in data set [3] is recorded as “B”.

The compound `CN(C)c1ccc(N(C(=O)Nc2ccc(S(=O)(=O)O)cc2)c2ccc(N(C)C)cc2)cc1` [Compound No. (2), sodium salt of N, N-bis(4-dimethylaminophenyl)-N'-(4-sulfophenyl)urea] had a λmax in data set [1] of 730 nm. Besides, the Solubility in water entry in data set [4] is “.circleincircle”. The “Stability after color developed” value in data set [2] is “B”. Moreover, in data set [3], the “Stability of leuco dye soln.” value is recorded as “A”.

`CNC(=O)N1c2ccc(N(C)C)cc2Sc2cc(N(C)C)ccc21` [(17), reference compound]: the λmax in data set [1] was 666 nm. In addition, the “Stability after color developed” value in data set [2] is given as “B”. In addition, the “Stability of leuco dye soln.” value in data set [3] is on record as “B”.

In turn, `CN(C)c1ccc2c(c1)Sc1cc(N(C)CC(=O)O)ccc1N2C(=O)NCC(=O)O` [(14)] displayed a λmax in data set [1] of 666 nm. For the same compound, the Solubility in water entry in data set [4] is “.circleincircle”. Further, the “Stability after color developed” value in data set [2] was “B”. The “Stability of leuco dye soln.” value in data set [3] is recorded as “B”.

With `Cc1ccc(S(=O)(=O)NC(=O)N(c2ccc(N(C)CO)cc2)c2ccc(N3CCCCC3)cc2)cc1` [(5)], the λmax in data set [1] is 730 nm. Also, in data set [2], the “Stability after color developed” value was “B”. The “Stability of leuco dye soln.” value in data set [3] is reported as “A”.
